{"source": "patent US20100099756A1", "about": "“USES OF INCENSOLE, INCENSOLE ACETATE AND DERIVATIVES THEREOF” (YISSUM RESEARCH DEVELOPMENT COMPANY OF THE HEBREW …, priority 2006, published 2010)", "key": {"TRPV3": {"biological_target": "T1, TRPV3 (Mus musculus, UniProt Q8K424)", "T1 sequence (Q8K424 1-791)": "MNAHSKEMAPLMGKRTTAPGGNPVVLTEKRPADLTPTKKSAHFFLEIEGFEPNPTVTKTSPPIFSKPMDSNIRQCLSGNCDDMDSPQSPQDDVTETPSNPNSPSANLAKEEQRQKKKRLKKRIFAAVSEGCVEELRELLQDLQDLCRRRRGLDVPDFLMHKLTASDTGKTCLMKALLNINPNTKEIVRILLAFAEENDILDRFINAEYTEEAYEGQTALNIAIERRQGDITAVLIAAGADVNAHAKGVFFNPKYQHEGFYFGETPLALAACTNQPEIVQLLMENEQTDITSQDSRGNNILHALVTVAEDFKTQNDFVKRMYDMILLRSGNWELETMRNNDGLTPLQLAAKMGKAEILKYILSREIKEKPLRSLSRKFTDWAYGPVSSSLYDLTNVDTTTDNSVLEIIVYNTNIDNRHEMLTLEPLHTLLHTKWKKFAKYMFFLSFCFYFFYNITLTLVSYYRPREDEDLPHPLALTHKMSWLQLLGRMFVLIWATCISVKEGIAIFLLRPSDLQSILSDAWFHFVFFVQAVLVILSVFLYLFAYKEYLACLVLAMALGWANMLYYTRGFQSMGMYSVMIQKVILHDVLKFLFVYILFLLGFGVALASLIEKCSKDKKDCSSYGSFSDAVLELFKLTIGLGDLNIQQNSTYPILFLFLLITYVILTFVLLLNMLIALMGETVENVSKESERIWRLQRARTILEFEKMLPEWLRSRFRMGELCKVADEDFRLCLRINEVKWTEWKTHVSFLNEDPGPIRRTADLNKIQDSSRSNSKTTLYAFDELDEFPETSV", "test": "Porsolt forced swimming test in WT and TRPV3−/− mice", "type": "in vivo, C57BL/6 mice", "parameters": "from tissue; host or cells: whole animal, wild type C57BL/6 female mice (TRPV3 KO as control)", "details": "75 mg/kg", "experimental": "Wild type and TRPV3^−/− mice (18-20 weeks old) were injected with vehicle (isopropanol:emulphor:saline=1:1:18) or IA (75 mg/kg). 30 min later they were tested in a, the elevated plus maze (5 min), followed by b, 9 min exposure to the Porsolt forced-swimming test. […] Data are presented as means±SEM; n=4-5. * p<0.05, compared to WT-Vehicle-injected mice (Bonferroni post hoc test). ** p<0.01, compared to WT-Vehicle-injected mice (Bonferroni post hoc test).\nAnimals and procedures. Female Sabra mice (Harlan, Israel, 15-20 weeks old) and wild type C57BL/6 or TRPV3 KO female mice (18-20 weeks old) [Chung, M. K., Lee, H., Mizuno, A., Suzuki, M. & Caterina, M. J. TRPV3 and TRPV4 mediate warmth-evoked currents in primary mouse keratinocytes. J. Biol. Chem. 279, 21569-21575 (2004)] were used for behavioral assessments. 10 mice were housed in each cage. The animal care and protocols met the guidelines of the U.S. National Institutes of Health, detailed in the Guide for the Care and Use of Laboratory Animals, and were applied in conformity with the Institutional Ethics Committees. For the c-Fos immunostaining, female Sabra mice (see above) were used. Temperature in the animal room was maintained between 20-22° C., the light cycle was 12 h lights on (8:00-20:00 h); 12 h lights off (20:00-8:00 h). […]"}, "COX-2": {"test_system": "COX-2", "test": "COX-2 production in LPS-stimulated RAW 264.7 cells", "type": "cell-based, mice", "details": "60 μM, P<0.001", "experimental": "(A(1)) Representative Western Blot bands of Cox2 are shown with tubulin as reference. (A(2)) COX-2 levels were measured in RAW 264.7 cells incubated for 24 hrs. with LPS in the presence or in the absence of IA (60 μM/ml); **, p<0.001. (B) Murine peritoneal macrophages were activated by LPS (1 μg/ml for 24 hrs.) in absence of IA or in the presence of IA at indicated concentrations. NO generation was determined by measuring the nitrite accumulated in the supernatants; **, p<0.001. (C) Generation of ROS by RAW 264.7 macrophages (5×10^5 cells in 0.5 ml Hanks' balanced salt solution) was measured by chemiluminescence. Cells were pre-incubated with various doses of IA for 24 hrs before luminol (10 μl) and zymosan (30 μl) were added to the tubes; *, p<0.05; **, p<0.01; ***, p<0.001\nCOX-2 Production. RAW 264.7 cells were treated with subtoxic concentrations (confirmed by MTT colorimetric assay) of incensole acetate (10-20 μg/ml, dissolved in ethanol and further diluted in medium) and incubated with lipopolysaccharide (LPS, E. coli 1 μg/ml for 24 hs, Sigma, Israel) for 16-24 hrs. […]\nProteins were extracted from cells in NP-40 lysis buffer (50 mM Tris/HCl pH 7.5, 150 mM NaCl, 0.1% SDS, 1% NP-40, 10 mM EDTA, 1 mM phenylmethylsulfonylfluoride (PMSF), and 10 mM DTT). Total protein concentration was determined using the Bradford method and the lysates were analyzed by Western blotting."}, "cancer cells": {"test_system": "cancer cells", "test": "Cell proliferation test (MTT)", "type": "cell-based", "details": "three days", "experimental": "In each MTT assay every concentration of the cytotoxic substance was tested in five replicates in microplate wells. Assays with every cell line were carried out in two to three repeated experiments. The inhibitory effect of various compounds was calculated as percentage inhibition in comparison with the values obtained in untreated wells to which vehicle (ethanol 0.5%) was added.\nAliquots (200 μL) of suspensions of cancer cells were dispensed into wells of 96-well tissue culture plates at densities of 0.02×10^6 cells/well. Various concentrations of IA were introduced into the wells, and their efficacy was tested three days after initiation of the cultures, using the 3-(4,5-dimethylthiazol-2-yl)-2,5-diphenyltetrazolium bromide (MTT) assay. The principle of this assay is that cells which survive following exposure to various compounds can reduce MTT to a dark -colored formazan, while dead cells are incapable of doing so. In each MTT assay every concentration of the cytotoxic substance was tested in five replicates in microplate wells. Assays with every cell line were carried out in two to three repeated experiments. The inhibitory effect of various compounds was calculated as percentage inhibition in comparison with the values obtained in untreated wells to which vehicle (ethanol 0.5%) was added."}}}
{"smiles": "CC(=O)OC1CC/C(C)=C/CC/C(C)=C/CC2(C(C)C)CCC1(C)O2", "note": "(stereo not shown) [IA, incensole acetate]", "values": [{"measurement": "immobility time, WT mice", "setting": "TRPV3", "result": "significantly reduced the immobility time"}, {"measurement": "COX-2 production", "setting": "COX-2", "result": "inhibited"}, {"measurement": "proliferation of cells, other cell lines (FIG. 11B)", "setting": "cancer cells", "result": "no effect"}, {"measurement": "proliferation of cells, several cell lines (FIG. 11A)", "setting": "cancer cells; hematopoetic cells", "result": "inhibited the proliferation of cells"}]}
